Measured values as given in publication doi:10.1101/2024.08.19.608619, “Discovery of potent SARS-CoV-2 nsp3 macrodomain inhibitors uncovers lack of translation to cellular antiviral response” (bioRxiv, 2024).
Like-named read-outs stand apart in the source and are kept apart here.

How the values were obtained:
SARS-CoV-2 nsp3-mac1 [1] = target: T1, SARS-CoV-2 nsp3-mac1 (Severe acute respiratory syndrome coronavirus 2, UniProt P0DTD1); experiment: biochemical; set-up: SARS-CoV-2 nsp3 macrodomain TR-FRET single point, per cent inhibition, n=2
SARS-CoV-2 nsp3-mac1 [2] = target: T1, SARS-CoV-2 nsp3-mac1; experiment: biochemical; assay type: biochemical; conditions: SARS-CoV-2 nsp3 macrodomain TR-FRET single point
[3] = read-out: perc_inhibition_mean, batch_name=ASAP-0000196-002
[4] = read-out: perc_inhibition_mean, batch_name=ASAP-0000199-002
[5] = read-out: perc_inhibition_mean, batch_name=ASAP-0000200-002

## Cn1nc(NC(=O)c2cc3nccn3c(=O)[nH]2)c2nccnc21 [ASAP-0000125]
SARS-CoV-2 nsp3-mac1 [1]; read-out: perc_inhibition_mean, batch_name=ASAP-0000125-001
  inhibition at 50 µM: -1.91%
SARS-CoV-2 nsp3-mac1 [2]; concentration 50.0 uM
  perc_inhibition_mean: -1.913%

## Cn1c(C(=O)NCCNC(=O)c2ccco2)cc2c(=O)n3ccccc3nc21 [ASAP-0000126]
SARS-CoV-2 nsp3-mac1 [1]; read-out: perc_inhibition_mean, batch_name=ASAP-0000126-001
  inhibition at 50 µM: -4.47%
SARS-CoV-2 nsp3-mac1 [2]; concentration 50.0 uM
  perc_inhibition_mean: -4.472%

## CCn1cc(CNc2nc3[nH]cnc3c(=O)[nH]2)nn1 [ASAP-0000127]
SARS-CoV-2 nsp3-mac1 [1]; read-out: perc_inhibition_mean, batch_name=ASAP-0000127-001
  inhibition at 50 µM: -0.991%
SARS-CoV-2 nsp3-mac1 [2]; concentration 50.0 uM
  perc_inhibition_mean: -0.991%

## O=C(NCc1nc(-c2ccco2)n[nH]1)c1cc(=O)n2ncnc2[nH]1 [ASAP-0000128]
SARS-CoV-2 nsp3-mac1 [1]; read-out: perc_inhibition_mean, batch_name=ASAP-0000128-001
  inhibition at 50 µM: -2.6%
SARS-CoV-2 nsp3-mac1 [2]; concentration 50.0 uM
  perc_inhibition_mean: -2.599%

## COCc1cc(CC(=O)Nc2ncnc3[nH]cnc23)no1 [ASAP-0000129]
SARS-CoV-2 nsp3-mac1 [1]; read-out: perc_inhibition_mean, batch_name=ASAP-0000129-001
  inhibition at 50 µM: 2.97%
SARS-CoV-2 nsp3-mac1 [2]; concentration 50.0 uM
  perc_inhibition_mean: 2.968%

## NS(=O)(=O)c1ccccc1CNc1ncnc2[nH]ccc12 [ASAP-0000130]
SARS-CoV-2 nsp3-mac1 [1]; read-out: perc_inhibition_mean, batch_name=ASAP-0000130-001
  inhibition at 50 µM: 3.66%
SARS-CoV-2 nsp3-mac1 [2]; concentration 50.0 uM
  perc_inhibition_mean: 3.656%

## O=C(Nc1ccc(C(=O)NCc2c(C(=O)O)[nH]c3ccccc23)cc1)NC1CC1 [ASAP-0000131]
SARS-CoV-2 nsp3-mac1 [1]; read-out: perc_inhibition_mean, batch_name=ASAP-0000131-001
  inhibition at 50 µM: 86.2%
SARS-CoV-2 nsp3-mac1 [2]; concentration 50.0 uM
  perc_inhibition_mean: 86.217%

## O=C(Nc1cnc2[nH]ncc2c1)C1(c2ccccc2)CC1 [ASAP-0000133]
SARS-CoV-2 nsp3-mac1 [1]; read-out: perc_inhibition_mean, batch_name=ASAP-0000133-001
  inhibition at 50 µM: 3.21%
SARS-CoV-2 nsp3-mac1 [2]; concentration 50.0 uM
  perc_inhibition_mean: 3.207%

## COC(=O)c1cc2c(Oc3ccccc3C#N)ncnc2[nH]1 [ASAP-0000135]
SARS-CoV-2 nsp3-mac1 [1]; read-out: perc_inhibition_mean, batch_name=ASAP-0000135-001
  inhibition at 50 µM: 2.92%
SARS-CoV-2 nsp3-mac1 [2]; concentration 50.0 uM
  perc_inhibition_mean: 2.922%

## O=C(Cn1c(=O)[nH]c2ccccc21)Nc1cnc2[nH]ncc2c1 [ASAP-0000137]
SARS-CoV-2 nsp3-mac1 [1]; read-out: perc_inhibition_mean, batch_name=ASAP-0000137-001
  inhibition at 50 µM: 1.78%
SARS-CoV-2 nsp3-mac1 [2]; concentration 50.0 uM
  perc_inhibition_mean: 1.776%

## O=C(Nc1cnn(C2CCNCC2)c1)c1ncnc2[nH]ccc12 [ASAP-0000138]
SARS-CoV-2 nsp3-mac1 [1]; read-out: perc_inhibition_mean, batch_name=ASAP-0000138-001
  inhibition at 50 µM: -1.9%
SARS-CoV-2 nsp3-mac1 [2]; concentration 50.0 uM
  perc_inhibition_mean: -1.896%

## CC(C)n1cc(S(=O)(=O)Nc2cnc3[nH]ncc3c2)cn1 [ASAP-0000139]
SARS-CoV-2 nsp3-mac1 [1]; read-out: perc_inhibition_mean, batch_name=ASAP-0000139-001
  inhibition at 50 µM: 1.55%
SARS-CoV-2 nsp3-mac1 [2]; concentration 50.0 uM
  perc_inhibition_mean: 1.555%

## Cc1cccc(Cl)c1S(=O)(=O)Nc1cnc2[nH]ncc2c1 [ASAP-0000140]
SARS-CoV-2 nsp3-mac1 [1]; read-out: perc_inhibition_mean, batch_name=ASAP-0000140-001
  inhibition at 50 µM: -0.254%
SARS-CoV-2 nsp3-mac1 [2]; concentration 50.0 uM
  perc_inhibition_mean: -0.254%

## Cn1c(C(=O)NCCn2cccc2)cc2c(=O)n3ccccc3nc21 [ASAP-0000188]
SARS-CoV-2 nsp3-mac1 [1]; read-out: perc_inhibition_mean, batch_name=ASAP-0000188-001
  inhibition at 50 µM: 2.26%
SARS-CoV-2 nsp3-mac1 [2]; concentration 50.0 uM
  perc_inhibition_mean: 2.262%

## CCn1cc(CNc2cc3c(O)ncnc3cn2)nn1 [ASAP-0000189]
SARS-CoV-2 nsp3-mac1 [1]; read-out: perc_inhibition_mean, batch_name=ASAP-0000189-001
  inhibition at 50 µM: 1.67%
SARS-CoV-2 nsp3-mac1 [2]; concentration 50.0 uM
  perc_inhibition_mean: 1.671%

## CSc1ccccc1NC(=O)c1ncnc2[nH]ccc12 [ASAP-0000190]
SARS-CoV-2 nsp3-mac1 [1]; read-out: perc_inhibition_mean, batch_name=ASAP-0000190-001
  inhibition at 50 µM: -5.8%
SARS-CoV-2 nsp3-mac1 [2]; concentration 50.0 uM
  perc_inhibition_mean: -5.805%

## CSc1cccc(NC(=O)c2ncnc3[nH]ccc23)c1 [ASAP-0000192]
SARS-CoV-2 nsp3-mac1 [1]; read-out: perc_inhibition_mean, batch_name=ASAP-0000192-001
  inhibition at 50 µM: -4.67%
SARS-CoV-2 nsp3-mac1 [2]; concentration 50.0 uM
  perc_inhibition_mean: -4.669%

## OC[C@@]1(Cc2ccc(F)cc2)CCN(c2ncnc3[nH]ccc23)C1 [ASAP-0000194]
SARS-CoV-2 nsp3-mac1 [1]; read-out: perc_inhibition_mean, batch_name=ASAP-0000194-001
  inhibition at 50 µM: 5.07%
SARS-CoV-2 nsp3-mac1 [2]; concentration 50.0 uM
  perc_inhibition_mean: 5.07%

## Cc1ncc(NCc2cnc3c(c2)NC(=O)CO3)cc1Cl [ASAP-0000195]
SARS-CoV-2 nsp3-mac1 [1]; read-out: perc_inhibition_mean, batch_name=ASAP-0000195-001
  inhibition at 50 µM: -0.368%
SARS-CoV-2 nsp3-mac1 [2]; concentration 50.0 uM
  perc_inhibition_mean: -0.368%

## c1cc(-c2nnc(Sc3ncnc4[nH]ccc34)[nH]2)ccn1 [ASAP-0000196]
SARS-CoV-2 nsp3-mac1 [1]; read-out: perc_inhibition_mean, batch_name=ASAP-0000196-001
  inhibition at 50 µM: 5.47%
SARS-CoV-2 nsp3-mac1 [1]; [3]
  inhibition at 50 µM: 10.7%
  inhibition at 100 µM: 3.32%
SARS-CoV-2 nsp3-mac1 [2]; concentration 50.0 uM
  perc_inhibition_mean: 5.47%
SARS-CoV-2 nsp3-mac1 [2]; concentration 50.0 uM, n=2
  perc_inhibition_mean: 10.682%
SARS-CoV-2 nsp3-mac1 [2]; concentration 100.0 uM, n=2
  perc_inhibition_mean: 3.318%

## c1coc(CNc2ncnc3[nH]cnc23)c1 [ASAP-0000198]
SARS-CoV-2 nsp3-mac1 [1]; read-out: perc_inhibition_mean, batch_name=ASAP-0000198-001
  inhibition at 50 µM: 2.63%
SARS-CoV-2 nsp3-mac1 [2]; concentration 50.0 uM
  perc_inhibition_mean: 2.634%

## c1nc(-c2nc(-c3cc(C4CC4)[nH]n3)no2)c2cc[nH]c2n1 [ASAP-0000199]
SARS-CoV-2 nsp3-mac1 [1]; read-out: perc_inhibition_mean, batch_name=ASAP-0000199-001
  inhibition at 50 µM: -2.81%
SARS-CoV-2 nsp3-mac1 [1]; [4]
  inhibition at 50 µM: -4.8%
  inhibition at 100 µM: -2.45%
SARS-CoV-2 nsp3-mac1 [2]; concentration 50.0 uM
  perc_inhibition_mean: -2.809%
SARS-CoV-2 nsp3-mac1 [2]; concentration 50.0 uM, n=2
  perc_inhibition_mean: -4.799%
SARS-CoV-2 nsp3-mac1 [2]; concentration 100.0 uM, n=2
  perc_inhibition_mean: -2.454%

## Cc1cc(C(F)(F)F)nn1CCNc1ncnc2[nH]ccc12 [ASAP-0000200]
SARS-CoV-2 nsp3-mac1 [1]; read-out: perc_inhibition_mean, batch_name=ASAP-0000200-001
  inhibition at 50 µM: 4.6%
SARS-CoV-2 nsp3-mac1 [1]; [5]
  inhibition at 50 µM: -3.04%
  inhibition at 100 µM: -2.21%
SARS-CoV-2 nsp3-mac1 [2]; concentration 50.0 uM
  perc_inhibition_mean: 4.602%
SARS-CoV-2 nsp3-mac1 [2]; concentration 50.0 uM, n=2
  perc_inhibition_mean: -3.037%
SARS-CoV-2 nsp3-mac1 [2]; concentration 100.0 uM, n=2
  perc_inhibition_mean: -2.206%

## CC[C@@H]1C[C@@H](C(=O)Nc2ncnc3[nH]c(C)c(C)c23)CCO1 [ASAP-0000201]
SARS-CoV-2 nsp3-mac1 [1]; read-out: perc_inhibition_mean, batch_name=ASAP-0000201-001
  inhibition at 50 µM: 12.1%
SARS-CoV-2 nsp3-mac1 [2]; concentration 50.0 uM
  perc_inhibition_mean: 12.08%
